This note sets out measurements from PMC7988154, “Mechanism of substrate transport and inhibition of the human LAT1-4F2hc amino acid transporter” (Cell Discovery, 2021).

T1 sequence (Q01650 whole entry): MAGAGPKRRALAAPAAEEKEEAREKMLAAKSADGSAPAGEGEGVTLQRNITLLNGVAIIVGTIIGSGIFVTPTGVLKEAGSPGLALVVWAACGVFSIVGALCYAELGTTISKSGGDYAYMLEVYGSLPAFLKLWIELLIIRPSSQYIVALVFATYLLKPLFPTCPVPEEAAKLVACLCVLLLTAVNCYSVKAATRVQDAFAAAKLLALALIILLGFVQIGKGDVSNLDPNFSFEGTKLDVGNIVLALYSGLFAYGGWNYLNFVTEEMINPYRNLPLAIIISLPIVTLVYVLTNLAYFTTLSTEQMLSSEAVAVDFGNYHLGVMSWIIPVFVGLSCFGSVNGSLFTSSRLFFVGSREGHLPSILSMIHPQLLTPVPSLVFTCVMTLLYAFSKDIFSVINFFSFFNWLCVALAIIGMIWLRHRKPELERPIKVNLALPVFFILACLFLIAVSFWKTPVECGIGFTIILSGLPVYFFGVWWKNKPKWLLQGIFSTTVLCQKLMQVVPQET
T1 sequence (P08195 103-630 partner): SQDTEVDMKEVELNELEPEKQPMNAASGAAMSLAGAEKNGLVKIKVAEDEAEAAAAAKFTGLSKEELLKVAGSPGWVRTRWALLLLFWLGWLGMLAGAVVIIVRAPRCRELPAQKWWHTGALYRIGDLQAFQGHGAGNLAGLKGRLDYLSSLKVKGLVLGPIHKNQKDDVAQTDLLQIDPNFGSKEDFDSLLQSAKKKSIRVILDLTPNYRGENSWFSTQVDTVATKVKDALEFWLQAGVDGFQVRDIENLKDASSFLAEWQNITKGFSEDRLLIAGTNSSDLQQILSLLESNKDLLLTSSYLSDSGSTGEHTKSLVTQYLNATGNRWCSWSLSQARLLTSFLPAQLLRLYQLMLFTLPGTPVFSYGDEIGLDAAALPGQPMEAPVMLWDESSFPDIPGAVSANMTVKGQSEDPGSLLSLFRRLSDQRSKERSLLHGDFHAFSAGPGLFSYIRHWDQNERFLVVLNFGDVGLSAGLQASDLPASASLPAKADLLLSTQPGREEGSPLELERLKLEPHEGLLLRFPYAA

The test addresses T1, LAT1 (SLC7A5) (Homo sapiens, UniProt Q01650).
T1 construct: with 4F2hc (SLC3A2)
The experiment in a line: cryo-EM structure of the LAT1-4F2hc complex; IC50 from [3H]-L-leucine uptake in HT-29 cells. It is filed as cell-based.
`NC1(C(=O)O)CCc2ccc(OCc3cccc4ccccc34)cc2C1` (stereo not drawn) [JX-075] gave a concentration for half-maximal inhibition (IC50) of 165 nM.
Take `NC1(C(=O)O)CCc2ccc(OCc3ccccc3-c3ccccc3)cc2C1` (stereo not drawn) [JX-078]: it took 121 nM to reach half-maximal inhibition (IC50).
The compound `NC1(C(=O)O)CCc2ccc(OCc3ccccc3-c3nc4ccccc4o3)cc2C1` (stereo not drawn) [JX-119] returned an IC50 of 234 nM.

The term IC50 denotes the midpoint of a concentration-inhibition curve. High values mean weaker potency in that assay, low ones greater potency in that assay.
